Test results: US10363251B2, “(+)-morphinans as antagonists of toll-like receptor 9 and therapeutic uses thereof” (Mallinckrodt LLC, priority 2009, dated 2019)
“Also recorded” adds a separate entry of the source.

How the values were obtained:
[1] = tested on: chronic constriction injury (CCI) neuropathic pain model; test: Mechanical allodynia (Von Frey) in chronic constriction injury (Bennett) model, Example 3; format: in vivo, rat; conditions: Day 14 post-surgery, 30 and 90 min post-dosing, vs vehicle; for Mechanical allodynia (50% allodynia threshold), left (affected) paw: (+)-naloxone.HCl 66.7 mg/kg S.C., Gabapentin 100 mg/kg I.P.
Description: Neuropathic pain affects approximately 1% of the U.S. population and is extremely difficult to manage. Usually the pain is chronic, severe, and fails to respond to traditional analgesic drugs. Fortunately, one of the most widely used animal models for neuropathic pain closely mimics the pain endured by patients. In this model, termed the chronic constriction injury (CCI) or Bennett model, four closely spaced ligatures tied loosely around the sciatic nerve of a rat cause demyelination of the nerve, resulting in spontaneous pain, such as prolonged paw elevation and licking of the ligated paw. Induced pain in the nerve-injured limb can be measured using Von Frey filaments, applied to the plantar surface of the paw to test for responses to non-noxious tactile stimulation. The onset of this heightened mechanical allodynia is quite rapid and it persists for 2-3 months.
In this example, the CCI ligation was performed on the left sciatic nerve in three groups of rats. Von Frey testing of mechanical allodynia was performed on both paws on Day 14 to determine the analgesic efficacy of the test agent. The testing was performed pre-dosing, and at 30 and 90 minutes post-dosing.
The animals were allocated to treatment groups based on their baseline Von Frey data, measured prior to surgery. The mechanical allodynia scores for each group were reviewed to ensure that the mean values and standard deviation satisfied the assumption of homogeneity. Thirty-one (31) animals were used on the study. Thirty (30) animals were initially allocated to treatment groups, and the remaining […] animals were held as spares. One spare was then used to replace an animal that died during surgery. Body weights were taken one day after arrival, prior to surgery and weekly thereafter. On Day 14, after the final behavioral testing, the animals were euthanized by carbon dioxide asphyxiation. No necropsy was performed nor tissues collected.
All surgeries were performed under aseptic conditions. Prior to surgery, the rats were sedated using inhaled Isoflurane anesthetic. The left leg was shaved and prepped. The common sciatic nerve was exposed and freed from adherent tissue at mid-thigh by separating the muscle (biceps femoris) by blunt dissection. Proximal to the sciatic nerve's trifurcation; approximately 7 mm of nerve was freed from the adhering tissue. Four ligatures, approximately 1 mm apart, were tied loosely around the nerve using 6.0 chromic catgut. Each of the sutures was tied loosely with a square knot around the sciatic nerve. A brief twitch in the muscle surrounding the exposure was an indicator of the desired degree of constriction. The site was then closed using the appropriate suture material. Post-operative care and observations were carried out until the animal recovered consciousness.
The animals underwent a series of behavioral testing for neuropathic pain assessment. A Von Frey test of mechanical allodynia was performed on both hind paws prior to surgery to achieve a baseline measurement for randomization and then following surgery on Day 14 (test article efficacy) according to Table 4.
Twice prior to surgery, the animals were acclimated to the allodynia apparatus. This habituated the rats to the testing devices to familiarize them with the apparatus so they were calm at the time of testing. […] Animals were first habituated to the testing chamber so that they were calm enough for their pain threshold to be assessed. […]

[2] = tested on: acute pancreatitis; test: Caerulein-induced acute pancreatitis model; format: in vivo, mouse; conditions: 30 mg/kg subcutaneously, vs saline
Method: Acute pancreatitis can be induced in rodents by administration of caerulein, a CCK analog derived from derived from the Australian tree frog Litoria caerulea. To determine whether a (+)-morphinan could reduce the inflammation and/or consequences of pancreatitis, the following example was performed. Mice were administered subcutaneously an effective dose of caerulein and either saline or Cmpd II-78 (30 mg/kg). After the standard period of time, the mice were sacrificed. Pancreatic tissue sections were stained and examined for neutrophil infiltration, and pancreatic trypsin, serum amylase, and pancreatic caspase −1 activities were measure using standard assays.

[3] = tested on: hepatic IR injury in steatotic livers; test: IR injury in high fat diet (HFD) steatotic liver model; format: in vivo, mouse
Description: In addition to the scarcity of liver donations, many of the donor livers have a significant degree of steatosis which is known to increase IR injury. Thus, many otherwise healthy, but steatotic, livers are rejected for transplantation. If a drug can be shown to reduce IR injury in steatotic livers it would allow use of steatotic livers for transplantation and increase the total number of liver transplants that could be performed. To test this, mice were placed on a high fat diet (HFD) for 12 weeks to induce hepatic steatosis, which was followed by IR injury. For this, mice were subjected to hepatic ischemia by occluding the vasculature supplying the left and median lobes (ischemic lobes) of the liver by a microvascular clamp. After 1 hour of ischemia, the blood supply was resumed (reperfusion). Some animals were sacrificed after 3 hour of reperfusion, and others after 12 hours or reperfusion. The experimental group received Cmpd II-78 at a dose of 80 mg/kg given intraperitoneally 1 hour prior to starting ischemia. Cellular and molecular responses were assessed essentially as described above in Example 9.

[4] = tested on: Experimental Autoimmune Encephalomyelitis (EAE); conditions: bid for 20 days; Cmpd II-98 5 mg/kg sc, others 20 mg/kg sc, Prednisolone 4.5 mg/kg ip; vs vehicle control
[5] = tested on: TLR9; test: IFN-β up-regulation in plasmacytoid dendritic cells by TLR9 agonist ODN2395; format: cell-based
Description: TLR9 signalling involves activation of NF-κB and IRF downstream pathways. The (+)-morphinan inhibited both of these pathways following activation of TLR9 (but not activation of TLR4 or other receptors). The type C TLR9 agonist, ODN2395, and the TL4 agonist, LPS, both induce up-regulation of IL-1β in peritoneal macrophages via activation of NF-κB.

Structure (SMILES)	Mechanical allodynia (50% allodynia threshold), left (affected) paw ([1]; listed as (+)-naloxone)	Mechanical allodynia (50% allodynia threshold), left (affected) paw ([1]; listed as (+)-naloxone.HCl)	Mechanical allodynia (50% allodynia threshold), right (unaffected) paw [1]	Neutrophil infiltration in the pancreas [2]	Pancreatic caspase 1 activity [2]	Pancreatic trypsin activity [2]	Serum amylase [2]	IR-induced activation of MAP kinases (western blotting), steatotic livers ([3]; HFD)	IR-induced cleavage and activation of TLR9 (western blotting), steatotic livers ([3]; HFD)	Histological Suzuki score (hepatic IR injury), steatotic livers ([3]; HFD 12 weeks, 80 mg/kg ip 1 hour prior to ischemia, 3 and 12 hours of reperfusion)	IR-induced serum ALT levels, steatotic livers ([3]; HFD, 80 mg/kg ip, 3 and 12 hours of reperfusion)	Anti-inflammatory molecule IL-1Ra mRNA, steatotic livers ([3]; HFD, 12 hours of reperfusion)	IR-induced pro-inflammatory cytokines (IL-1β, MCP-1, NLPR3 mRNA), steatotic livers ([3]; HFD, 12 hours of reperfusion)	EAE clinical scores [4]	IFN-β mRNA up-regulation (IRF pathway) [5]
C=CCN1CC[C@]23c4c5ccc(O)c4O[C@H]2C(=O)CC[C@]3(O)[C@H]1C5 [(+)-Naloxone, (+)-naloxone]	effective at significantly reducing the allodynia	effective analgesic for reversing neuropathic pain	no significant group differences												
CN[C@@H]1CC[C@]2(O)[C@@H]3Cc4ccc(O)c5c4[C@]2(CCN3CC2CC2)[C@@H]1O5 [II-78]				dramatically reduced; also recorded: reduced neutrophil infiltration in the pancreas	Significant reductions; also recorded: reduced pancreatic caspase 1 activity	Significant reductions; also recorded: reduced	Significant reductions; also recorded: reduced serum amylase	reduction of IR-induced activation of MAP kinases	reduction of IR-induced cleavage and activation of LTR9	reduced hepatic ischemic reperfusion (IR) injury in steatotic livers	reduced IR-induced serum alanine transaminase (ALT) levels in steatotic livers	increased an anti-inflammatory molecule	reduced IR-induced pro-inflammatory cytokines	did not improve EAE	this activation was inhibited; also recorded: reduced both NFκB- and IRF-dependent pathways downstream of TLR9
